Measured values published in patent publication US20260184708A1, “PYRIDAZINONES AND METHODS OF USE THEREOF” (GFB (ABC), LLC, priority 2017, published 2026).

Tests used:
[1] = biological target: T1, TRPC5 (Homo sapiens, UniProt Q9UL62); test: TRPC5 Fluorescence Assay - FLIPR format (HEK-TREx hTRPC5, Riluzole stimulation); format: cell-based
T1 construct: expressed in transfected cells; host or cells: HEK 293
T1 sequence (Q9UL62 1-973): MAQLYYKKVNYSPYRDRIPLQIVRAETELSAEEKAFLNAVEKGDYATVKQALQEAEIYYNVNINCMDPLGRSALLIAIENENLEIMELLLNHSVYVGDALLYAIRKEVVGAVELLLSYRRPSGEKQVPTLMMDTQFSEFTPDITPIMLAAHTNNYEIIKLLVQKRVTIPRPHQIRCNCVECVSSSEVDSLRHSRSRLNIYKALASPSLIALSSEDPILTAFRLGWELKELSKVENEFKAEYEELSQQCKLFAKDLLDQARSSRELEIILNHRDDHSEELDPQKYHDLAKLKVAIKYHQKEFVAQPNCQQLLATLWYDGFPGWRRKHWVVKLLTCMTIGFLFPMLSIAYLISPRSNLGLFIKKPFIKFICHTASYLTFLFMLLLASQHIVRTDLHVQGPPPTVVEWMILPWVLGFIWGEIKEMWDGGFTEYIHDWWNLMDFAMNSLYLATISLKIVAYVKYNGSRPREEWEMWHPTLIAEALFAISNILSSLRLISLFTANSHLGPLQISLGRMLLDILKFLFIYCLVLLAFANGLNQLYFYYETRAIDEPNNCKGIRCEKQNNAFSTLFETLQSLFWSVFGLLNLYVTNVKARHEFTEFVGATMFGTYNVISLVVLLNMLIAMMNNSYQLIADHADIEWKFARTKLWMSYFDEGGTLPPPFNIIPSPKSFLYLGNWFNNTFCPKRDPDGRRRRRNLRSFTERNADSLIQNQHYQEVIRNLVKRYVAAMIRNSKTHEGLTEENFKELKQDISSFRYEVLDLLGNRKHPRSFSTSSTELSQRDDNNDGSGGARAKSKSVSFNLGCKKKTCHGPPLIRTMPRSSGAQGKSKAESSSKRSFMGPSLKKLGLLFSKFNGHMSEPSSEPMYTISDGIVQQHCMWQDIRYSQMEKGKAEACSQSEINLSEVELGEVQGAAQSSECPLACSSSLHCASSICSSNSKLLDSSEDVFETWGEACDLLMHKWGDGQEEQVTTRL
Procedure: • Cell line: ICLN-001633 • Base Cell: HEK • Channel: TRPC5 • Species: Human • Thaw ID: multiple • Passage: multiple
FLIPR Assay Buffer (Earls Balanced Salt Solution (EBSS) was prepared as follows:
Test Agent Preparation: Compounds were made up to, or supplied as, a 10 mM stock solution generally using DMSO as the vehicle. 10-point dose response curves were generated using the Echo-550 acoustic dispenser. Compound source plates were made by serially diluting compound stocks to create 10 mM, 1 mM, and 0.1 mM solutions in DMSO into Echo certified LDV plates. The Echo then serially spotted 100% DMSO stock solutions into source dose response plates to generate a 4-fold dilution scheme. 100% DMSO was added to the spotted dose response plates to bring the final volume to 5 μl. […] of the dose response stock plate was then spotted into pre-incubation and stimulation assay plates. 50 μl of pre-incubation buffer and 100 μl of stimulation buffer was then added to the plates resulting in a final assay test concentration range of 30 μM to 0.0001 μM with a final DMSO concentration of 0.3%.
Experimental Methods: Cells expressing TRPC5 (HEK-TREx hTRPC5) are plated onto 384 well, black PDL-coated microplates and maintained in TRPC5 growth media the day prior to use for experiments. TRPC5 expression is induced by the application of […] tetracycline at the time of plating. Media is removed from the plates and 10 μl of 4 μM of Fluo-4 AM (mixed with equal volume of Pluronic F-127) in EBSS is added to the cells. Cells are incubated at room temperature, protected from light, for 60-90 minutes. After the incubation period, the dye is removed and replaced with 10 μl of EBSS. Cell, pre-incubation and stimulation plates are loaded onto the FLIPR-II and the assay is initiated. The FLIPR measures a 10 second baseline and then adds 10 μl of 2× compounds (or controls). Changes in fluorescence are monitored for an additional 5 minutes. After the 5 minute pre-incubation, 20 μl of 2× Riluzole (with 1× compound or controls) is added to the cell plate. The final Riluzole stimulation concentration in the assay is 30 μM. After the Riluzole addition, changes in fluorescence are monitored for an additional 5 minutes.
Test Agent Effect: Test agent modulation of TRPC5 calcium response was determined as follows. After the Riluzole, fluorescence was monitored for a 5 minute period. The maximum relative fluorescene response (minus the control response of 1 μM of the control inhibitor) was captured and exported from the FLIPR. Test agent effect was calculated as % inhibition using the following formula: % inhibition=((RFU Test Agent−Plate Average RFU REF INHIB)/(Plate Average RFU Control−Plate Average RFU REF INHIB))×100

[2] = biological target: T1, TRPC5; test: TRPC5 automated patch clamp assay (Qpatch), current block after rosiglitazone stimulation; format: cell-based; conditions: HEK293 cells overexpressing TRPC5, rosiglitazone stimulation
Procedure, shortened: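 Currents were elicited by 300 ms voltage ramps (−100 to +100 mV, every 10 s, holding −60 mV) in human TRPC5-expressing HEK 293 cells on automated patch clamp, with Rosiglitazone (30 uM) activating the channel. Internal Ca2+ buffered to 1 μM; Hill-equation fitting gave IC50.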

[3] = Table 10, read-out: TRPCS-FLIPR IC50
[4] = Table 9, read-out: hTRPCS-FLIPR IC50
[5] = Table 4, 80 mV, read-out: TRPC5_QP_ XC50_80
[6] = Table 4, 100 mV, read-out: TRPC5_QP_ XC50_100
[7] = 80 mV, read-out: TRPC5_QP XC50_80
[8] = 100 mV, read-out: TRPC5_QP XC50_100
[9] = Table 5, 80 mV, read-out: TRPC5_QP_ XC50_80
[10] = Table 5, 100 mV, read-out: TRPC5_QP_ XC50_100
[11] = Table 3, 80 mV, read-out: TRPC5_QP_ XC50_80
[12] = Table 3, 100 mV, read-out: TRPC5_QP_ XC50_100

CNC(=O)c1nn(Cc2ccccc2C(F)F)c2c1CN(c1cn[nH]c(=O)c1Cl)CC2
IC50 [1, 3]: 0.01 to 1000 nM

C[C@@H](c1ccc(F)cc1C(F)F)n1nc(C(N)=O)c2c1CCN(c1cn[nH]c(=O)c1Cl)C2
IC50 [1, 3]: 0.01 to 1000 nM

CCc1ncccc1[C@H](CC)N1CCN(c2cn[nH]c(=O)c2C#N)CC1
IC50 [1, 4]: 1000 to 5000 nM

C[C@H](c1ccccc1C(F)(F)F)N1CCN(c2cn[nH]c(=O)c2Cl)CC1=O
IC50 [1, 4]: 1000 to 5000 nM

CS(=O)(=O)c1nn(Cc2ccc(F)cc2C(F)F)c2c1CN(c1cn[nH]c(=O)c1Cl)CC2
IC50 [1, 3]: 0.01 to 1000 nM

CCc1ncsc1Cn1nnc2c1CCN(c1cn[nH]c(=O)c1Cl)C2
IC50 [1, 3]: 0.01 to 1000 nM

CCc1ncccc1NC1CCN(c2cn[nH]c(=O)c2Cl)CC1
IC50 [1, 4]: 5000 to 10000 nM

CN(c1ccc(F)cc1C(F)(F)F)c1n[nH]c2c1CCN(c1cn[nH]c(=O)c1Cl)C2
IC50 [1, 3]: 0.01 to 1000 nM

O=c1[nH]ncc(N2CCc3c(cnn3Cc3ccc(F)cc3CN3CCOCC3)C2)c1Cl
IC50 [1, 3]: 0.01 to 1000 nM

C[C@@H](c1ccc(F)cc1C(F)(F)F)n1[nH]c(=O)c2c1CCN(c1cn[nH]c(=O)c1Cl)C2
IC50 [1, 3]: 0.01 to 1000 nM

CCCCn1c(Oc2cccc(F)c2)nc2c1CCN(c1cn[nH]c(=O)c1Cl)C2
IC50 ([1]; Table 7, read-out: TRPC5-FLIPR IC50): 1000 to 5000 nM

CCc1ncccc1CC1(O)CCN(c2cn[nH]c(=O)c2Cl)CC1
IC50 [1, 4]: 1000 to 5000 nM

O=c1[nH]ncc(Cl)c1N1CCN(Cc2ccccc2C(F)(F)F)CC1
IC50 [2, 5]: 5 to 10 µM | IC50 [2, 6]: 5 to 10 µM

Cc1cc(F)ccc1CN1CCN(c2cc(=O)[nH][nH]c2=O)CC1
IC50 [2, 5]: 10 to 500 µM | IC50 [2, 6]: 10 to 500 µM

O=C(c1ccccc1)N1CCN(c2cn[nH]c(=O)c2Br)CC1
IC50 [2, 7]: 10 to 500 µM | IC50 [2, 8]: 10 to 500 µM

CCN(CC)C(=O)CN1CCN(c2cn[nH]c(=O)c2Cl)[C@H](C)C1
IC50 [2, 5]: 10 to 500 µM | IC50 [2, 6]: 10 to 500 µM

O=C1CN(c2cn[nH]c(=O)c2Cl)CCN1Cc1ccc(F)cc1
IC50 [2, 9]: 5 to 10 µM | IC50 [2, 10]: 5 to 10 µM

Cc1ccc(CN2CCN(c3cn[nH]c(=O)c3Cl)CC2=O)cc1
IC50 [2, 9]: 5 to 10 µM | IC50 [2, 10]: 5 to 10 µM

O=C1CN(c2cn[nH]c(=O)c2Br)CCN1Cc1ccc(F)cc1F
IC50 [2, 11]: 1 to 5 µM | IC50 [2, 12]: 1 to 5 µM

Cc1cc(F)ccc1CN1CCN(c2cn[nH]c(=O)c2C(F)(F)F)CC1=O
IC50 [2, 9]: 5 to 10 µM | IC50 [2, 10]: 5 to 10 µM

Cc1ccccc1Cn1cnc2c1CN(c1cn[nH]c(=O)c1Cl)CC2
IC50 [2, 9]: 10 to 500 µM | IC50 [2, 10]: 10 to 500 µM

NC(=O)CN1CCN(c2cn[nH]c(=O)c2Br)CC1
IC50 [2, 7]: 10 to 500 µM | IC50 [2, 8]: 10 to 500 µM

Cc1ccccc1CN1CC2CCC(C1)N2c1cn[nH]c(=O)c1Br
IC50 [2, 11]: 10 to 500 µM | IC50 [2, 12]: 10 to 500 µM

O=c1[nH]ncc(N2CCN(Cc3cccc(C(F)(F)F)c3)CC2)c1Cl
IC50 [2, 11]: 1 to 5 µM | IC50 [2, 12]: 1 to 5 µM

COc1cn[nH]c(=O)c1N1CCN(Cc2ccc(F)cc2C)CC1
IC50 [2, 9]: 1 to 5 µM | IC50 [2, 10]: 1 to 5 µM
